Assay results: PMC12655351, “Synthesis and Anticancer Activity Evaluation of New 5-((5-Nitrofuran-2-yl)allylidene)-2-thioxo-4-thiazolidinones” (Pharmaceuticals, 2025)

Assays:
UACC-257 = assay: cells; settings: Homo sapiens, UACC-257, 48 h; for CC50: read-out: LC50, UACC-257, 48 h
TK-10 = settings: TK-10, 48 h
SK-MEL-28 [1] = assay: cells; settings: Homo sapiens, SK-MEL-28, 48 h; for CC50: read-out: LC50, SK-MEL-28, 48 h
Renal Cancer = assay: cells; settings: Homo sapiens; for GI50: read-out: MG_MID GI50; for CC50: read-out: MG_MID LC50
Prostate Cancer = assay: cells; settings: Homo sapiens, read-out: MG_MID GI50
EKVX = assay: NCI-60 SRB screen; settings: 48 h; for GI50 / CC50: Homo sapiens; for CC50: read-out: LC50, EKVX, 48 h
Leukemia [2] = settings: Leukemia subpanel
Ovarian cancer = Ovarian cancer subpanel
NCI-H266 = assay: NCI-60 SRB screen; settings: for GI50 / CC50: Homo sapiens, 48 h; for GI50 / TGI: NCI-H266, 48 h; for CC50: read-out: LC50, NCI-H266, 48 h
CNS cancer [3] = assay: cells; settings: Homo sapiens; for GI50: read-out: MG_MID GI50; for CC50: read-out: MG_MID LC50
LOX IMVI = settings: LOX IMVI, 48 h
NCI/ADR-RES = settings: 48 h
PC-3 = settings: PC-3, 48 h
MDA-MB-231 = assay: [3H]-thymidine incorporation assay; type: cell-based; settings: Homo sapiens; MDA-MB-231, 24 h of treatment
Method in brief: (§1)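 Cells treated 24 h with compound at 1, 5, 10 μM (MCF-7) or 5, 15, 30 μM (MDA-MB-231), in triplicate, then pulsed with 0.5 μCi [3H]-thymidine for 4 h at 37 °C. TCA-precipitated, lysed cells counted by scintillation; uptake expressed as percent of control.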

MCF-7 = assay: [3H]-thymidine incorporation assay; type: cell-based; settings: Homo sapiens, MCF7; MCF-7, 24 h of treatment
Method in brief: as §1

SN12C [4] = assay: cells; settings: Homo sapiens, 48 h; for CC50: read-out: LC50, SN12C, 48 h
U251 = assay: NCI-60 SRB screen; settings: for GI50 / CC50: Homo sapiens, U-251, 48 h; for GI50 / TGI: U251, 48 h; for CC50: read-out: LC50, U251, 48 h
HCC-2998 = settings: for TGI: HCC-2998, 48 h
CNS cancer [5] = settings: CNS cancer subpanel
HS 578T = assay: cells; settings: Homo sapiens, 48 h; for GI50: HS 578T; for CC50: read-out: LC50
Breast cancer = Breast cancer subpanel
SK-OV-3 = assay: cells; settings: Homo sapiens, SK-OV-3, 48 h; for CC50: read-out: LC50, SK-OV-3, 48 h
HCT-15 = assay: NCI-60 SRB screen; settings: HCT-15, 48 h; for GI50 / CC50: Homo sapiens; for CC50: read-out: LC50, HCT-15, 48 h
T-47D [6] = settings: 48 h
NCI-H23 = settings: NCI-H23, 48 h
T-47D [7] = assay: cells; settings: Homo sapiens, T47D, 48 h, T-47D
SN12C [8] = settings: SN12C, 48 h
SK-MEL-28 [9] = settings: for TGI: SK-MEL-28, 48 h
MALME-3M = assay: NCI-60 SRB screen; settings: 48 h; for GI50 / CC50: Homo sapiens, Malme-3M; for CC50: read-out: LC50, MALME-3M, 48 h; for TGI: MALME-3M
Leukemia [10] = assay: cells; settings: Homo sapiens; for GI50: read-out: MG_MID GI50; for CC50: read-out: MG_MID LC50

SMILES: CC(C)C(C(=O)O)N1C(=O)/C(=C/C=C/c2ccc([N+](=O)[O-])o2)SC1=S (centres unmarked) [5b, 3-Methyl-2-((Z)-5-((E)-3-(5-nitrofuran-2-yl)allylidene)-4-oxo-2-thioxothiazolidin-3-yl)butanoic acid]
- GI50 (UACC-257): 1.57 µM
- CC50 (UACC-257): 6.8 µM
- TGI (TK-10): 4.03 µM
- GI50 (SK-MEL-28 [1]): 1.46 µM
- CC50 (SK-MEL-28 [1]): 5.48 µM
- GI50 (Renal Cancer): 1.54 µM
- CC50 (Renal Cancer): 7.72 µM
- GI50 (Prostate Cancer): 1.62 µM
- TGI (EKVX): 4.80 µM
- GI50 (EKVX): 2.01 µM
- CC50 (EKVX): 13.9 µM
- MG_MID TGI (Leukemia [2]): 3.77 µM
- MG_MID TGI (Ovarian cancer): 5.19 µM
- GI50 (NCI-H266): 2.4 µM
- CC50 (NCI-H266): 88.8 µM
- TGI (NCI-H266): 7.65 µM
- GI50 (CNS cancer [3]): 1.28 µM
- CC50 (CNS cancer [3]): 5.93 µM
- TGI (LOX IMVI): 2.49 µM
- TGI (NCI/ADR-RES): 4.13 µM
- TGI (PC-3): 6.52 µM
- IC50 (MDA-MB-231): 6.01 µM
- IC50 (MCF-7): 1.93 µM
- GI50 (SN12C [4]): 0.79 µM
- CC50 (SN12C [4]): 4.96 µM
- GI50 (U251): 0.5 µM
- CC50 (U251): 4.64 µM
- TGI (U251): 1.79 µM
- growth GP (HCC-2998; HCC-2998, 10 μM, 48 h): -95.90%
- TGI (HCC-2998): 3.22 µM
- MG_MID TGI (CNS cancer [5]): 2.79 µM
- GI50 (HS 578T): 2.09 µM
- CC50 (HS 578T): > 100 µM
- MG_MID TGI (Breast cancer): 3.46 µM
- GI50 (SK-OV-3): 2.79 µM
- CC50 (SK-OV-3): 33.9 µM
- TGI (HCT-15): 2.18 µM
- GI50 (HCT-15): 0.73 µM
- CC50 (HCT-15): 5.32 µM
- TGI (T-47D [6]): 3.24 µM
- TGI (NCI-H23): 3.41 µM
- GI50 (T-47D [7]): 1.12 µM
- TGI (SN12C [8]): 2.15 µM
- growth GP (SK-MEL-28 [9]; SK-MEL-28, 10 μM, 48 h): -95.39%
- TGI (SK-MEL-28 [9]): 2.83 µM
- GI50 (MALME-3M): 1.32 µM
- CC50 (MALME-3M): 5.64 µM
- TGI (MALME-3M): 2.73 µM
- GI50 (Leukemia [10]): 0.84 µM
- CC50 (Leukemia [10]): > 100 µM

SMILES: CCCCC(C(=O)O)N1C(=O)/C(=C/C=C/c2ccc([N+](=O)[O-])o2)SC1=S (centres unmarked) [6b, 2-((Z)-5-((E)-3-(5-nitrofuran-2-yl)allylidene)-4-oxo-2-thioxothiazolidin-3-yl)hexanoic acid]
- GI50 (UACC-257): 1.93 µM
- CC50 (UACC-257): 9.62 µM
- TGI (TK-10): 8.15 µM
- GI50 (SK-MEL-28 [1]): 1.91 µM
- CC50 (SK-MEL-28 [1]): 7.29 µM
- GI50 (Renal Cancer): 2.24 µM
- CC50 (Renal Cancer): 17.7 µM
- GI50 (Prostate Cancer): 3.29 µM
- TGI (EKVX): 5.74 µM
- GI50 (EKVX): 2.26 µM
- CC50 (EKVX): 19.7 µM
- MG_MID TGI (Leukemia [2]): 9.84 µM
- MG_MID TGI (Ovarian cancer): 9.10 µM
- GI50 (NCI-H266): 2.22 µM
- CC50 (NCI-H266): 76.1 µM
- TGI (NCI-H266): 5.84 µM
- GI50 (CNS cancer [3]): 2.01 µM
- CC50 (CNS cancer [3]): 12 µM
- TGI (LOX IMVI): 3.34 µM
- TGI (NCI/ADR-RES): 5.61 µM
- TGI (PC-3): 11.3 µM
- IC50 (MDA-MB-231): 2.01 µM
- IC50 (MCF-7): 5.81 µM
- GI50 (SN12C [4]): 1.75 µM
- CC50 (SN12C [4]): 9.18 µM
- GI50 (U251): 1.91 µM
- CC50 (U251): 11 µM
- TGI (U251): 4.42 µM
- TGI (HCC-2998): 3.34 µM
- MG_MID TGI (CNS cancer [5]): 4.58 µM
- GI50 (HS 578T): 3.38 µM
- CC50 (HS 578T): > 100 µM
- MG_MID TGI (Breast cancer): 7.71 µM
- GI50 (SK-OV-3): 6.27 µM
- CC50 (SK-OV-3): 46.7 µM
- TGI (HCT-15): 3.58 µM
- GI50 (HCT-15): 1.71 µM
- CC50 (HCT-15): 7.47 µM
- TGI (T-47D [6]): 4.03 µM
- TGI (NCI-H23): 3.51 µM
- GI50 (T-47D [7]): 1.75 µM
- TGI (SN12C [8]): 4.00 µM
- TGI (SK-MEL-28 [9]): 3.73 µM
- GI50 (MALME-3M): 2.21 µM
- CC50 (MALME-3M): 9.02 µM
- TGI (MALME-3M): 4.47 µM
- GI50 (Leukemia [10]): 2.57 µM
- CC50 (Leukemia [10]): 98.4 µM
